# Measurements from patent publication US11566007B2, “Ras inhibitors” (Revolution Medicines, Inc., priority 2019, dated 2023).
# Where two headings read alike, the source gives them in different places.
# Columns and labels:
# [1] = target: NRAS G12C (Homo sapiens (Human), UniProt P01111+P62937, G12C); assay: Ras-Raf (BRAF RBD) disruption / FRET / MOA assay, NRAS G12C; format: biochemical; conditions: read-out: IC50* NRAS G12C FRET data
# In short: (§1)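 Ras:RAF disruption was scored as a fall in TR-FRET ratio relative to DMSO. Compound ranged in 3-fold steps over 10 points from 30 μM final; incubation ran 3 h at 25° C, detection antibodies a further 1.5 h. Reported as IC50.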
# [2] = target: KRAS G12S (Homo sapiens (Human), UniProt P01116+P62937, G12S); assay: Ras-Raf (BRAF RBD) disruption / FRET / MOA assay, KRAS G12S; format: biochemical; conditions: Ras-Raf disruption/FRET/MOA assay; class symbols; read-out: KRAS G12S FRET data IC50
# Chain of KRAS G12S (P01116-2 other isoform, or with tags, fused parts or gaps G12S): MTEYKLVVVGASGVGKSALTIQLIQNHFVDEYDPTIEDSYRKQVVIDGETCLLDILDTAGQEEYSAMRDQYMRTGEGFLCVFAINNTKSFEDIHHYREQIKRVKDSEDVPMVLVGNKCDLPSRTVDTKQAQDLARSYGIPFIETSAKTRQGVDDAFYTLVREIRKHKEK
# Chain of KRAS G12S (P62937 whole entry): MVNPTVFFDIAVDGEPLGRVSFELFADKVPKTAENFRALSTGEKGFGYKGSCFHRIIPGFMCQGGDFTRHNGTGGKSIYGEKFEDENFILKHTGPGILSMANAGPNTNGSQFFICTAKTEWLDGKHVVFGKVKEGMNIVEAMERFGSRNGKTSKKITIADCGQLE
# In short: as §1
# [3] = target: NRAS WT (Homo sapiens (Human), UniProt P01111+P62937); assay: Ras-Raf (BRAF RBD) disruption / FRET / MOA assay, NRAS WT; format: biochemical; conditions: read-out: IC50* NRAS WT FRET data
# Chain of NRAS WT (P01111 whole entry): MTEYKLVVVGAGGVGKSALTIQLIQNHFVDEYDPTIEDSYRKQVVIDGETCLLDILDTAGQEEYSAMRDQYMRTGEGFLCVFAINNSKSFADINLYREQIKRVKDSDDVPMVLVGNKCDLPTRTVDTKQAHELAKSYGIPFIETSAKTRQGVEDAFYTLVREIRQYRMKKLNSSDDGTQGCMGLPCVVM
# Chain of NRAS WT (P62937 whole entry): as the sequence (P62937 whole entry) above
# In short: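 TR-FRET disruption of nucleotide-loaded Ras binding to BRAF RBD via compound-driven ternary complex with cyclophilin A. Compound as 10-point 3-fold series from 30 μM final, 3 h at 25° C, then anti-His Eu-W1024 (10 nM) and anti-GST allophycocyanin (50 nM) for 1.5 h. IC50 from decreased FRET ratio versus DMSO.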
# [4] = target: K-Ras G12C (Homo sapiens (Human), UniProt P01116+P62937, G12C); assay: Ras-Raf (BRAF RBD) disruption / FRET / MOA assay, KRAS G12C; format: biochemical
# Chain of K-Ras G12C (P01116-2 other isoform, or with tags, fused parts or gaps G12C): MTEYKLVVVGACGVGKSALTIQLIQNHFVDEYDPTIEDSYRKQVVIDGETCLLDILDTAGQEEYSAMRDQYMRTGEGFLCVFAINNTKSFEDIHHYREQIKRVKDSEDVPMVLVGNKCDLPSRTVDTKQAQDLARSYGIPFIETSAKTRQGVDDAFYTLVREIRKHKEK
# Chain of K-Ras G12C (P62937 whole entry): as the sequence (P62937 whole entry) above
# In short: as §1
# [5] = target: KRAS G13D (Homo sapiens (Human), UniProt P01116+P62937, G13D); assay: Ras-Raf (BRAF RBD) disruption / FRET / MOA assay, KRAS G13D; format: biochemical; conditions: read-out: IC50* KRAS G13D FRET data
# Chain of KRAS G13D (P01116-2 other isoform, or with tags, fused parts or gaps G13D): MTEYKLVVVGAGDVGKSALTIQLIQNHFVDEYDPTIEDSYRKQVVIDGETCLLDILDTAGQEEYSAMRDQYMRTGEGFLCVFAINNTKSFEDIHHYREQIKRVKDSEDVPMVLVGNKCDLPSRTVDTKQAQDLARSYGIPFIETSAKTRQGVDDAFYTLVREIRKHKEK
# Chain of KRAS G13D (P62937 whole entry): as the sequence (P62937 whole entry) above
# In short: as §1
# [6] = test system: NCI-H358 cells (K-Ras G12C); assay: Potency assay: pERK in NCI-H358 cells; format: cell-based, human; conditions: Homo sapiens
# In short: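 4 h cpd, 37 °C; 10-pt 3-fold series, 10 mM DMSO top stock, duplicates. Readout pERK: AlphaLISA SureFire Ultra or In-Cell Western (IR-800CW secondary, DRAQ5 DNA stain). IC50, 4-PL fit vs log conc.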
# [7] = target: KRAS G12V (Homo sapiens (Human), UniProt P01116+P62937, G12V); assay: Ras-Raf (BRAF RBD) disruption / FRET / MOA assay, KRAS G12V; format: biochemical; conditions: read-out: IC50* KRAS G12V FRET data
# Chain of KRAS G12V (P01116-2 other isoform, or with tags, fused parts or gaps G12V): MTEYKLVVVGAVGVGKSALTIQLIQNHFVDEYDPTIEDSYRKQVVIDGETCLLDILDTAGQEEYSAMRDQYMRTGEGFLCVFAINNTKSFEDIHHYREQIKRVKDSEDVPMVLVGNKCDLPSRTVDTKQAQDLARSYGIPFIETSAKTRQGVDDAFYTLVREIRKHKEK
# Chain of KRAS G12V (P62937 whole entry): as the sequence (P62937 whole entry) above
# In short: as §1
# [8] = KRAS G12C, Ras-Raf disruption/FRET/MOA assay, read-out: IC50* KRAS G12C FRET data
# [9] = NCI-H358, H358 KRAS G12C, read-out: pERK EC50
# Chain of NRAS G12C (P01111 whole entry G12C): as the sequence (P01111 whole entry) above, with G12C counted along it
# Chain of NRAS G12C (P62937 whole entry): as the sequence (P62937 whole entry) above
Compound,IC50 [1] [nM],IC50 [2] [nM],IC50 [3] [nM],"IC50 [4, 8] [nM]",IC50 [5] [nM],"EC50 [6, 9] [nM]",IC50 [7] [nM],"IC50 ([4]; with Cyclophilin A, BRAF RBD, read-out: FRET (K-Ras G12C) IC50) [nM]","EC50 ([6]; NCI-H358, read-out: pERK EC50) [nM]"
"CCn1c(-c2cccnc2[C@H](C)OC)c2c3cc(ccc31)-c1csc(n1)C[C@H](NC(=O)[C@H](C(C)C)N(C)C(=O)N(C)C1CN(C(=O)/C=C/[C@H]3CCCN3C)C1)C(=O)N1CCC[C@H](N1)C(=O)OCC(C)(C)C2 (atropisomer, axis not shown) [Example A729]",100 to 1000,100 to 1000,100 to 1000,100 to 1000,100 to 1000,< 5000,1000 to 10000,–,–
"CCn1c(-c2cccnc2[C@H](C)OC)c2c3cc(ccc31)-c1csc(n1)C[C@H](NC(=O)[C@H](C(C)C)N(C)C(=O)N(C)C1CN(C(=O)/C=C/[C@@H]3CCCN3C)C1)C(=O)N1CCC[C@H](N1)C(=O)OCC(C)(C)C2 (atropisomer, axis not shown) [Example A730]",10 to 100,100 to 1000,100 to 1000,10 to 100,100 to 1000,< 5000,1000 to 10000,–,–
"CC#CC(=O)N1CC(N(C)C(=O)N(C)[C@H](C(=O)N[C@H]2Cc3nc(cs3)-c3ccc4c(c3)c(c(-c3cccnc3[C@H](C)OC)n4CC)CC(C)(C)COC(=O)[C@@H]3CCCN(N3)C2=O)C(C)C)C1 (atropisomer, axis not shown) [Example A731]",100 to 1000,100 to 1000,100 to 1000,100 to 1000,1000 to 10000,< 5000,1000 to 10000,–,–
"C=C(F)C(=O)N1CC(N(C)C(=O)N(C)[C@H](C(=O)N[C@H]2Cc3nc(cs3)-c3ccc4c(c3)c(c(-c3cccnc3[C@H](C)OC)n4CC)CC(C)(C)COC(=O)[C@@H]3CCCN(N3)C2=O)C(C)C)C1 (atropisomer, axis not shown) [Example A732]",100 to 1000,100 to 1000,100 to 1000,100 to 1000,1000 to 10000,< 5000,1000 to 10000,–,–
"C=CC(=O)N1CCN(C(=O)N(C)[C@H](C(=O)N[C@H]2Cc3nc(cs3)-c3ccc4c(c3)c(c(-c3cccnc3[C@H](C)OC)n4CC)CC(C)(C)COC(=O)[C@@H]3CCCN(N3)C2=O)C(C)C)[C@H]2C[C@H]21 (atropisomer, axis not shown) [Example A737]",10 to 100,100 to 1000,10 to 100,10 to 100,100 to 1000,< 5000,100 to 1000,–,–
"C=CS(=O)(=O)N1CCC(C(=O)N(C)[C@H](C(=O)N[C@H]2Cc3nc(cs3)-c3ccc4c(c3)c(c(-c3cncnc3)n4CC)CC(C)(C)COC(=O)[C@@H]3CCCN(N3)C2=O)C(C)C)C1 (single isomer, unassigned) [Example A170]",1000 to 10000,> 10000,> 10000,1000 to 10000,> 10000,< 5000,> 10000,–,–
"C=CS(=O)(=O)N1CCC(C(=O)N(C)[C@H](C(=O)N[C@H]2Cc3cccc(c3)-c3ccc4c(c3)c(c(-c3cncnc3)n4CC)CC(C)(C)COC(=O)[C@@H]3CCCN(N3)C2=O)C(C)C)C1 (single isomer, unassigned) [Example A171]",1000 to 10000,> 10000,> 10000,1000 to 10000,> 10000,< 5000,> 10000,–,–
C=CC(=O)N1CC[C@H](C(=O)N(C)[C@H](C(=O)N[C@H]2Cc3cc(ccn3)-c3ccc4c(c3)c(c(-c3cccnc3COC)n4CC)CC(C)(C)COC(=O)[C@@H]3CCCN(N3)C2=O)C(C)C)C1 [Example A136],1000 to 10000,> 10000,> 10000,1000 to 10000,> 10000,< 5000,> 10000,–,–
C=CC(=O)N1CC[C@H](C(=O)N(C)[C@H](C(=O)N[C@H]2Cc3cc(O)cc(c3)-c3ccc4c(c3)c(c(-c3cncs3)n4CC)CC(C)(C)COC(=O)[C@@H]3CCCN(N3)C2=O)C(C)C)C1 [Example A143],100 to 1000,1000 to 10000,> 10000,100 to 1000,> 10000,< 5000,1000 to 10000,–,–
C=CC(=O)N1CC[C@H](C(=O)N(C)[C@H](C(=O)N[C@H]2Cc3cc(O)cc(c3)-c3ccc4c(c3)c(c(-c3cccc(=O)n3C(C)C)n4CC)CC(C)(C)COC(=O)[C@@H]3CCCN(N3)C2=O)C(C)C)C1 [Example A151],100 to 1000,1000 to 10000,1000 to 10000,100 to 1000,> 10000,< 5000,1000 to 10000,–,–
C=CC(=O)N1CC[C@H](C(=O)N(C)[C@H](C(=O)N[C@H]2Cc3cc(O)cc(c3)-c3ccc4c(c3)c(c(-c3cccnc3)n4[C@H](C)C#N)CC(C)(C)COC(=O)[C@@H]3CCCN(N3)C2=O)C(C)C)C1 [Example A193],100 to 1000,100 to 1000,1000 to 10000,10 to 100,1000 to 10000,–,100 to 1000,295,< 5000
C=CC(=O)N1CC[C@H](C(=O)N(C)[C@H](C(=O)N[C@H]2Cc3cc(O)cc(c3)-c3ccc4c(c3)c(c(-c3c(C)cccc3C)n4CC)CC(C)(C)COC(=O)[C@@H]3CCCN(N3)C2=O)C(C)C)C1 [Example A226],100 to 1000,1000 to 10000,> 10000,100 to 1000,> 10000,< 5000,1000 to 10000,–,–
C=CC(=O)N1CC[C@H](C(=O)N(C)[C@H](C(=O)N[C@H]2Cc3cc(O)cc(c3)-c3ccc4c(c3)c(c(-c3cccc5c3COC5)n4CC)CC(C)(C)COC(=O)[C@@H]3CCCN(N3)C2=O)C(C)C)C1 [Example A227],100 to 1000,1000 to 10000,1000 to 10000,100 to 1000,> 10000,< 5000,1000 to 10000,–,–
C=CC(=O)N1CC[C@H](C(=O)N(C)[C@H](C(=O)N[C@H]2Cc3cc(O)cc(c3)-c3ccc4c(c3)c(c(-c3cnc(N(C)C)s3)n4CC)CC(C)(C)COC(=O)[C@@H]3CCCN(N3)C2=O)C(C)C)C1 [Example A302],100 to 1000,1000 to 10000,> 10000,100 to 1000,1000 to 10000,< 5000,1000 to 10000,–,–
C=CC(=O)N1CC[C@H](C(=O)N(C)[C@H](C(=O)N[C@H]2Cc3cc(O)cc(c3)-c3ccc4c(c3)c(c(-c3csc(N(C)C)n3)n4CC)CC(C)(C)COC(=O)[C@@H]3CCCN(N3)C2=O)C(C)C)C1 [Example A303],1000 to 10000,> 10000,> 10000,1000 to 10000,> 10000,< 5000,> 10000,–,–
C=CC(=O)N1CCOC2(CCN(C(=O)N(C)[C@H](C(=O)N[C@H]3C[C@H]4CN(CCO4)c4ccc5c(c4)c(c(-c4cccnc4[C@H](C)OC)n5CC)CC(C)(C)COC(=O)[C@@H]4CCCN(N4)C3=O)C(C)C)CC2)C1 [Example A564],100 to 1000,100 to 1000,100 to 1000,100 to 1000,1000 to 10000,< 5000,100 to 1000,–,–
CCn1c(-c2cccnc2[C@H](C)OC)c2c3cc(ccc31)-c1cccc(c1)CC(NC(=O)[C@H](C(C)C)N1CC[C@]3(CCN(C(=O)C#C[C@@H]4COCCN4C4COC4)C3)C1=O)C(=O)N1CCC[C@H](N1)C(=O)OCC(C)(C)C2 (some centres unmarked) [Example A565],100 to 1000,1000 to 10000,> 10000,100 to 1000,> 10000,< 5000,1000 to 10000,–,–
C=CC(=O)N1CC[C@H](C(=O)N(C)[C@H](C(=O)N[C@H]2Cc3cccc(c3)-c3ccc4c(c3)c(c(-c3cccnc3[C@H](C)OC)n4CC)CC(C)(C)COC(=O)[C@@H]3CCCN(N3)C2=O)C(C)C(F)(F)F)C1 (some centres unmarked) [Example A641],100 to 1000,1000 to 10000,1000 to 10000,100 to 1000,1000 to 10000,< 5000,1000 to 10000,–,–
"CCn1c(-c2cccnc2[C@H](C)OC)c2c3cc(ccc31)C1CCCN(C1)C[C@H](NC(=O)[C@@H](COC1CN(C(=O)C#CC(C)(C)N(C)C)C1)C(C)C)C(=O)N1CCC[C@H](N1)C(=O)OCC(C)(C)C2 [Example A646, (2R)-2-(((1-(4-(dimethylamino)-4-methylpent-2-ynoyl)azetidin-3-yl)oxy)methyl)-N-((6^3S,4S)-1^1-ethyl-1^2-(2-((S)-1-methoxyethyl)pyridin-3-yl)-10,10-dimethyl-5,7-dioxo-6^1,6^2,6^3,6^4,6^5,6^6-hexahydro-1^1H-8-oxa-1(5,3)-indola-6(1,3)-pyridazina-2(3,1)-piperidinacycloundecaphane-4-yl)-3-methylbutanamide]",10 to 100,> 10000,> 10000,10 to 100,> 10000,< 5000,> 10000,–,–
